Each structure is given as a SMILES string.

Holding throughout (assay type): functional
For test [1], the system named is Mus musculus. The test is described as follows: Percent increase in life span was calculated against L1210 murine leukemia cells in BDF1 male mice at the specified in vivo dose of 90(mg/kg)/day.
The subject of test [2] is Mus musculus. Description: Median day of death was calculated against L1210 murine leukemia cells in BDF1 male mice at the specified in vivo dose of 90(mg/kg)/day.
The test system of test [3] is Mus musculus. The test is described as follows: Percent increase in life span was calculated against L1210 murine leukemia cells in BDF1 male mice at the specified in vivo dose of 120(mg/kg)/day.
Test [4] deals with Mus musculus. Description: Median day of death was calculated against L1210 murine leukemia cells in BDF1 male mice at the specified in vivo dose of 120(mg/kg)/day.
In test [5] the test system is Mus musculus. Description: Percent increase in life span was calculated against L1210 murine leukemia cells in BDF1 male mice at the specified in vivo dose of 3.5(mg/kg)/day.
The test system of test [6] is Mus musculus. Description: Median day of death was calculated against L1210 murine leukemia cells in BDF1 male mice at the specified in vivo dose of 3.5(mg/kg)/day.

For `COc1cccc2c1C(=O)c1c(O)c3c(c(O)c1C2=O)C[C@@](O)(C(C)=O)C[C@@H]3O[C@@H]1O[C@H](CO)[C@@H](O)[C@H](O)[C@H]1N`, in the test on Mus musculus [1], the Increase in life-span is 60%. In addition, the “Median day of death” value in the test on Mus musculus [2] was 16.
`COc1cccc2c1C(=O)c1c(O)c3c(c(O)c1C2=O)C[C@@](O)(C(=O)CO)C[C@@H]3OC1OC(CO)C(O)C(O)C1N` (stereo partly specified): in the test with Mus musculus [3], the Increase in life-span is recorded as 40%. For the same molecule, the “Median day of death” value with Mus musculus [4] is on record as 14.
On to `COc1cccc2c1C(=O)c1c(O)c3c(c(O)c1C2=O)C[C@@](O)(C(=O)CO)C[C@@H]3O[C@H]1C[C@H](N)[C@H](O)[C@H](C)O1` [DOXORUBICIN], for which the Increase in life-span in the test with Mus musculus [5] was 40%. The “Median day of death” value in the test with Mus musculus [6] is listed as 14.

(Values after ChEMBL document CHEMBL1121926, “Adriamycin analogues. Preparation and antitumor evaluation of 7-O-(beta-D-glucosaminyl)daunomycinone and 7-O-(beta-D-glucosaminyl)adriamycinone and their N-trifluoroacetyl derivatives” (1982).)
